Laboratory results taken from patent publication US20250250581A1, “HERBICIDE-RESISTANT POLYPEPTIDE AND APPLICATION THEREOF” (SHANDONG SHUNFENG BIOTECHNOLOGY CO.LTD., priority 2022, published 2025).

What was measured:
[1] = system: wild-type (WT) rice plants, variety Xiushui 134; experiment: Herbicide spraying for resistance identification, wild-type Xiushui 134; assay type: in vivo; settings: 50 mg/L (139 μM) spray
Experimental: (§1) Verifying the herbicide resistance of the above two genes (ZmHIR1 and SqHIR1): cloning these two genes, respectively, and overexpressing them in the rice variety Xiushui 134. The TO generation transgenic seedlings were sprayed with 50 mg/L (139 μM) herbicide isoxaflutole for resistance identification, and the results are shown in FIGS. 10-11.

[2] = system: transgenic plants (SqHIR1) in rice variety Xiushui 134; experiment: Herbicide spraying of T0 transgenic seedlings overexpressing SqHIR1; assay type: in vivo; settings: 50 mg/L (139 μM) spray
Experimental: as §1

[3] = system: wild-type Nipponbare rice; experiment: Seed germination on ½ MS medium with isoxaflutole, wild-type Nipponbare; assay type: in vivo
From the text: (§2) In this study, the base editor mediates genetic transformation through Agrobacterium, and the recipient variety was Nipponbare (NIP). After obtaining TO transgenic plants, the genotype of the target site was identified by PCR and sequencing, and the mutant individuals were transplanted to the field and T1 generation seeds were harvested. In order to verify the resistance of the mutant to herbicides, the harvested T1 generation seeds were dehulled, disinfected, and then inoculated on ½ MS medium with different HPPD herbicides. We selected the herbicide isoxaflutole, and the final concentration was set to 400 nM, while the tolerance concentration of wild-type Nipponbare rice to isoxaflutole during the seed germination stage was about 100 nM. Seed germination and seedling growth status were observed and counted 10 days after inoculation. […] To further confirm its resistance, we transplanted the green seedlings of YX6 into the greenhouse and sprayed them with 100 μM isoxaflutole one month later. The tolerance concentration of wild-type Nipponbare rice to isoxaflutole during the seedling stage was about 40 μM.

[4] = system: rice YX6 mutant (OE-HIR1); experiment: Herbicide spraying of plants, YX6 mutant; assay type: in vivo; settings: for rank order of resistance of the YX6 mutant (OE-HIR1) to different herbicides: comparison among herbicides sprayed
From the text: as §2
(§3) To further confirm the relationship between gene LOC_Os02g09720 and the herbicide isoxaflutole, we designed two different sgRNA targets in the coding region of gene LOC_Os02g09720 and knocked out the gene using CRISPR/Cas9 in the wild-type Nipponbare rice and YX6 resistant rice backgrounds. After obtaining TO transgenic plants, the two target regions were sequenced, and homozygous knockout plants were selected and sprayed with herbicides together with wild-type plants and YX6 resistant plants. The concentration of isoxaflutole was set to 40 μM. The phenotype was observed two weeks later. […] We named this gene HIR1 (HPPD INHIBITOR RESISTANCE 1), and its encoded protein is HIR1 protein. The amino acid sequence is shown in SEQ ID No.1. The genotype of the wild-type Nipponbare plant is HIR1, and the knockout plant is hir1.
(§4) In order to further determine the resistance strength of rice YX6 mutant (OE-HIR1), we set up three high concentration gradients of isoxaflutole to spray it (200 μM, 400 μM, 800 µM), with wild-type Nipponbare plants (HIR1) and wild-type Nipponbare HIR1 gene knockout plants (hir1) as controls. […] The tolerance range of rice YX6 mutant (OE-HIR1) to isoxaflutole may be higher, even reaching 1200-1500 μM, while the tolerance concentration of wild-type Nipponbare plants to isoxaflutole was about 40 μM, and its resistance is estimated to be increased by 30 times.
(§5) HPPD herbicides mainly include triketones, pyrazolones, isoxazolones, diketonitriles, and benzophenones. In order to determine whether the rice YX6 mutant (OE-HIR1) is resistant to other HPPD herbicides, we selected the herbicides: mesotrione, tembotrione, an unlisted quinotrione-methyl analog (Y13287), topramezone, and pyrasulfotole, and sprayed them with wild-type Nipponbare rice as the control.

[5] = system: transgenic plant numbered YX6 (T1 generation seeds); experiment: Seed germination on ½ MS medium with isoxaflutole, YX6 T1 seeds; assay type: in vivo, rice; settings: 400 nM in ½ MS medium, 10 days after inoculation
From the text: as §2

[6] = system: wild-type Nipponbare HIR1 knockout plant hir1 (NIP); experiment: Herbicide spraying of plants, HIR1 knockout in wild-type background; assay type: in vivo, rice; settings: 40 μM spray, two weeks later, LOC_Os02g09720 knockout in wild-type background
From the text: as §3

[7] = system: resistant plant YX6 HIR1 knockout plant hir1 (YX6); experiment: Herbicide spraying of plants, HIR1 knockout in YX6 background; assay type: in vivo, rice; settings: 40 μM spray, two weeks later, LOC_Os02g09720 knockout in YX6 background
From the text: as §3

[8] = system: transgenic plants (ZmHIR1) in rice variety Xiushui 134; experiment: Herbicide spraying of T0 transgenic seedlings overexpressing ZmHIR1; assay type: in vivo; settings: 50 mg/L (139 μM) spray
Experimental: as §1

[9] = system: wild-type Nipponbare plants (HIR1); experiment: Herbicide spraying of plants, wild-type Nipponbare; assay type: in vivo, rice
From the text: as §2, §3, §4, §5

[10] = 400 μM spray, YX6 mutant (OE-HIR1)

Compound: CS(=O)(=O)c1cc(C(F)(F)F)ccc1C(=O)c1cnoc1C1CC1 [isoxaflutole]
- phenotype after spraying [1]: become dwarfed, yellow, and dry
- phenotype after spraying [2]: basically remained green, with normal plant height and good growth status
- seed germination and seedling growth status ([3]; 400 nM in ½ MS medium, 10 days after inoculation, wild-type Nipponbare): obvious bleaching symptoms of phytotoxicity
- tolerance concentration during the seed germination stage ([3]; wild-type Nipponbare rice, seed germination stage): about 100 nM
- phenotype after spraying ([4]; 40 μM spray, two weeks later, YX6 plants): not affected and grew normally
- phenotype after spraying ([4]; 100 μM spray, after two weeks, YX6): not affected at all
- phenotype after spraying ([4]; 800 μM spray, YX6 mutant (OE-HIR1)): could still grow normally
- resistance increase versus wild-type Nipponbare ([4]; YX6 mutant (OE-HIR1) vs wild type tolerance about 40 μM, estimated): ~30 times
- tolerance range ([4]; YX6 mutant (OE-HIR1), 'may be higher, even reaching'): 1200 to 1500 µM
- seed germination and seedling growth status [5]: seedlings remained green normally
- phenotype after spraying [6]: bleached, withered, and died gradually
- phenotype after spraying [7]: bleached, withered, and died gradually
- phenotype after spraying [8]: basically remain green, with normal plant height and good growth status
- phenotype after spraying ([9]; 40 μM spray, two weeks later, wild-type plants): bleaching and wilting, but still survived
- phenotype after spraying ([9]; 100 μM spray, after two weeks, wild-type Nipponbare): completely bleached and withered
- tolerance concentration during the seedling stage ([9]; wild-type Nipponbare, spraying): about 40 μM

Compound: CS(=O)(=O)c1ccc(C(=O)C2C(=O)CCCC2=O)c([N+](=O)[O-])c1 [mesotrione]
- phenotype after spraying [4, 10]: had no phytotoxicity and could grow normally without bleaching
- rank order of resistance of the YX6 mutant (OE-HIR1) to different herbicides [4]: sulfone pyrazone>topramezone≈tembotrione>mesotrione≈quinotrione-methyl analog
- phenotype after spraying ([9]; 400 μM spray, wild-type plants): had all bleached and suffered certain phytotoxicity

Compound: Cc1nn(C)c(O)c1C(=O)c1ccc(C(F)(F)F)cc1S(C)(=O)=O [pyrasulfotole]
- phenotype after spraying [4, 10]: had no phytotoxicity and could grow normally without bleaching
- rank order of resistance of the YX6 mutant (OE-HIR1) to different herbicides [4]: sulfone pyrazone>topramezone≈tembotrione>mesotrione≈quinotrione-methyl analog
- phenotype after spraying ([9]; 400 μM spray, wild-type plants): had all bleached and suffered certain phytotoxicity

Compound: CS(=O)(=O)c1ccc(C(=O)C2C(=O)CCCC2=O)c(Cl)c1COCC(F)(F)F [tembotrione]
- phenotype after spraying [4, 10]: had no phytotoxicity and could grow normally without bleaching
- rank order of resistance of the YX6 mutant (OE-HIR1) to different herbicides [4]: sulfone pyrazone>topramezone≈tembotrione>mesotrione≈quinotrione-methyl analog
- phenotype after spraying ([9]; 400 μM spray, wild-type plants): had all bleached and suffered certain phytotoxicity

Compound: Cc1c(C(=O)c2cnn(C)c2O)ccc(S(C)(=O)=O)c1C1=NOCC1 [topramezone]
- phenotype after spraying [4, 10]: had no phytotoxicity and could grow normally without bleaching
- rank order of resistance of the YX6 mutant (OE-HIR1) to different herbicides [4]: sulfone pyrazone>topramezone≈tembotrione>mesotrione≈quinotrione-methyl analog
- phenotype after spraying ([9]; 400 μM spray, wild-type plants): had all bleached and suffered certain phytotoxicity
